# Data: patent US8685928B2, “Antagonists of MUC1” (Dana-Farber Cancer Institute, Inc., priority 2010, dated 2014)
# “Also recorded” adds a separate entry of the source. Positions of bridges follow the written chain, without caps; N, C: chain ends. Non-standard residues stand in square brackets, D forms with d. Residues, ends and D or L forms follow the SMILES beside them.
# Columns and labels:
# [1] = molecular target: norepinephrine transporter (Homo sapiens, UniProt P23975); assay: biochemical
# Chain of norepinephrine transporter (P23975 whole entry, species assumed): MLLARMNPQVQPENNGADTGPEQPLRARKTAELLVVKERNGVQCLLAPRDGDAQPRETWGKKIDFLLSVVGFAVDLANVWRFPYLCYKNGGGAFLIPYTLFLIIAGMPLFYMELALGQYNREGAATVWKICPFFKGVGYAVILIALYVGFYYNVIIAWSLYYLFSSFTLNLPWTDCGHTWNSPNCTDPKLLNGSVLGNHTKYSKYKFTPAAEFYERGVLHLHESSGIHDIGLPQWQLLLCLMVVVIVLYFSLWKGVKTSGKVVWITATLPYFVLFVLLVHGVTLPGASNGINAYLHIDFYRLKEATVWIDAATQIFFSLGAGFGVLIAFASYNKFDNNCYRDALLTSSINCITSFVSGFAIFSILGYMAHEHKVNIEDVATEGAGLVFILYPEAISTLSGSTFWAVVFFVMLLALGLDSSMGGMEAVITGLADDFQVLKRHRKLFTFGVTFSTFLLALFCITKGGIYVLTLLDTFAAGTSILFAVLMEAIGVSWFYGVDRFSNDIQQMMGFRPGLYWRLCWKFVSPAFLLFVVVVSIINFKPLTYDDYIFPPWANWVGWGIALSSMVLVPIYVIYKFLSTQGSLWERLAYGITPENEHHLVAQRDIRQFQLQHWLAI
# dopamine D1 receptor = dopamine D1 receptor (Homo sapiens, UniProt P21728); assay: biochemical
# Chain of dopamine D1 receptor (P21728 whole entry, species assumed): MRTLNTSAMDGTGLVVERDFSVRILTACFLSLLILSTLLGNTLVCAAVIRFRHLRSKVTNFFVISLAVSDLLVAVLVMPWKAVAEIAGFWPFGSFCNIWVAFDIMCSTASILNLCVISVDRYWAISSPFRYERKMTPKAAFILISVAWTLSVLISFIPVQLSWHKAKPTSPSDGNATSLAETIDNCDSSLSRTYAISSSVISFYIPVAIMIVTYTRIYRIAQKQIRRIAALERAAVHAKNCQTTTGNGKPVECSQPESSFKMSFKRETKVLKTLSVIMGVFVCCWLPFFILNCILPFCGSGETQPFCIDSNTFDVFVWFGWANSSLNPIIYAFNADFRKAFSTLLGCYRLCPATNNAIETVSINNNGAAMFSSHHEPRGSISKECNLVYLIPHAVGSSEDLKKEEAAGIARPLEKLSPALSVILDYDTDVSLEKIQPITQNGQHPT
# [2] = system: PC3 prostate carcinoma xenograft; assay: PC3 human prostate carcinoma xenograft model; type: in vivo, mouse; conditions: 7.5 mg/kg
# Description: Male BALB/c nu/nu mice (6-7 weeks old; Charles River Laboratories, Wilmington, Mass.) were injected with 5 million A549 or PC3 cells in the right thigh. When tumors reached a predetermined size (approximately 80-100 mm^3; 10-16 days after tumor cell implantation), treatment was initiated as follows: Group 1, saline control (daily×21 days); Group 2, GO-203-2c (7.5 mg/kg, 5 days on/2 days off×3 cycles); Group 3, GO-203-2c (7.5 mg/kg, daily×21 days). In the A549 study, Group 3 animals that still had palpable/measurable tumors at the end of the 21-day treatment period were administered an additional 9 days of GO-203-2c treatment (Group 3′), with a one week interim period between treatments.
# [3] = molecular target: nicotinic acetylcholine α1 (bungarotoxin) receptor (Homo sapiens, UniProt P02708+P07510+Q07001); assay: biochemical
# Chain of nicotinic acetylcholine α1 (bungarotoxin) receptor (P07510 23-517): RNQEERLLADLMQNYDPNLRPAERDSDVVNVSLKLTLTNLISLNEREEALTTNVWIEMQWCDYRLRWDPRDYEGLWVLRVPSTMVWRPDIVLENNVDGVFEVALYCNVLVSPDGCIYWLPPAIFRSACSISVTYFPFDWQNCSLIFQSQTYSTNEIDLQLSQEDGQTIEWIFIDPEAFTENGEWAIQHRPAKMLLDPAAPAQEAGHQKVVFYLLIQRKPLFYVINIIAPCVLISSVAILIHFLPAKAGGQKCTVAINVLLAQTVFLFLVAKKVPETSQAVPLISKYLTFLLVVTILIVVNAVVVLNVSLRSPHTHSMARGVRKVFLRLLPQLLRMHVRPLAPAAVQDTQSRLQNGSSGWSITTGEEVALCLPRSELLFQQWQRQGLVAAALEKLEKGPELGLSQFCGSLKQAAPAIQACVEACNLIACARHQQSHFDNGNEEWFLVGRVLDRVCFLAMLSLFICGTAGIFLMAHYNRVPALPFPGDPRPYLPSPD
# Chain of nicotinic acetylcholine α1 (bungarotoxin) receptor (P02708 21-457): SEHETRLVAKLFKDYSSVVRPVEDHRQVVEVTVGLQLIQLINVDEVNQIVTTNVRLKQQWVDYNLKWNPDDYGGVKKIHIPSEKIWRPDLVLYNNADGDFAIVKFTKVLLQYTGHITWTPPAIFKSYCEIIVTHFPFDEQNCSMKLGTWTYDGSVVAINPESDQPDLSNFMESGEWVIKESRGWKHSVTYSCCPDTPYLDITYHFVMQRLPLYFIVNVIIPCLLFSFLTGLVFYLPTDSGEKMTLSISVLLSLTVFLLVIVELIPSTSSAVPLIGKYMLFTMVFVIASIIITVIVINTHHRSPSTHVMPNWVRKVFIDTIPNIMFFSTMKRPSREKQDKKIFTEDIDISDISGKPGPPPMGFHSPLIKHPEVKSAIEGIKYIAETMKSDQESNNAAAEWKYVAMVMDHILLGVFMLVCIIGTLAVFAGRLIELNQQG
# Chain of nicotinic acetylcholine α1 (bungarotoxin) receptor (Q07001 22-517): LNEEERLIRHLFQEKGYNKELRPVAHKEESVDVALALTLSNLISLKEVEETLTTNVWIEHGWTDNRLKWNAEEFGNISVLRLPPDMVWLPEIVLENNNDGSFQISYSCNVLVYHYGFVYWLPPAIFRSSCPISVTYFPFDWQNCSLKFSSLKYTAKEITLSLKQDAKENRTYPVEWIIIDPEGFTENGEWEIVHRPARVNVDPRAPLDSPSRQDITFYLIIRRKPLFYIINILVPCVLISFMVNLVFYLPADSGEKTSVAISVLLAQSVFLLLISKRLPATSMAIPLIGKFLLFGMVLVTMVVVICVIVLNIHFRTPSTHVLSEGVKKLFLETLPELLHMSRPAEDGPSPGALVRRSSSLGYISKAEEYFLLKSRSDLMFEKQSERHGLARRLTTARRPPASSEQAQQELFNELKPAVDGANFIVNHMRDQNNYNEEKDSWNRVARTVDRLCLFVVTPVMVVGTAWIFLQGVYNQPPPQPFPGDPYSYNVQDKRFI
# Chain of nicotinic acetylcholine α1 (bungarotoxin) receptor (P11230 24-501, further chain): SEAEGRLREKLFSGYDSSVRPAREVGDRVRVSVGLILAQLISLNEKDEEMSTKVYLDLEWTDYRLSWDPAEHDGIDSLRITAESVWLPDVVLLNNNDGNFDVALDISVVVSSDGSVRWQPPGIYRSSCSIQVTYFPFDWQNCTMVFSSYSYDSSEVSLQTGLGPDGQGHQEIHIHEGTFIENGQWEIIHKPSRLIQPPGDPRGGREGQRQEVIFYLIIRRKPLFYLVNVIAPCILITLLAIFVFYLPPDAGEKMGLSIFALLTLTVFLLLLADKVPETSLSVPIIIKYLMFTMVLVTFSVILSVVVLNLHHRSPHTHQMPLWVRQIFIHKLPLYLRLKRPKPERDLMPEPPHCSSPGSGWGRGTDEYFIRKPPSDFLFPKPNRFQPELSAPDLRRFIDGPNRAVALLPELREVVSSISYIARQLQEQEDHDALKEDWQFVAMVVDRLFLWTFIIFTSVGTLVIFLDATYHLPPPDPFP
# adrenergic α1A receptor = adrenergic α1A receptor (Homo sapiens, UniProt P35348); assay: biochemical
# Chain of adrenergic α1A receptor (P35348 whole entry): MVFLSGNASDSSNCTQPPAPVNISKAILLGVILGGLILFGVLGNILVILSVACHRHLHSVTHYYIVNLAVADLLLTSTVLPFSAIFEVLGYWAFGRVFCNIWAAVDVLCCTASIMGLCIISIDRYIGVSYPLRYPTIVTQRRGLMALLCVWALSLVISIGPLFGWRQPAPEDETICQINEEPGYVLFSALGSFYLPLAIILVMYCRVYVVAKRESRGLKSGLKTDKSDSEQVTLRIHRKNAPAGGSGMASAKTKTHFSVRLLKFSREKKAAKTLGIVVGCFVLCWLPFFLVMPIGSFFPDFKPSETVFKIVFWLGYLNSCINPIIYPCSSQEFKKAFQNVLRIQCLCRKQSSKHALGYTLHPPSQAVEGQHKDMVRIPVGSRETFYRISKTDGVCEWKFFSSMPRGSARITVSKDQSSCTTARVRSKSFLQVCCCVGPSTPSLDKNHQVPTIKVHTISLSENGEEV
# MUC1-CD = molecular target: T1, MUC1-CD (Homo sapiens, UniProt P15941); assay: MUC1-CD oligomerization in HEK 293T cells transfected with GFP- and Flag-tag MUC1-CD; type: cell-based; conditions: HEK 293T cells transfected with human MUC1-CD
# T1 construct: Mucin 1 (MUC1) oncoprotein cytoplasmic domain (MUC1-CD); expressed in transfected cells; host or cells: HEK 293T
# T1 sequence (P15941 1182-1255 limits assumed): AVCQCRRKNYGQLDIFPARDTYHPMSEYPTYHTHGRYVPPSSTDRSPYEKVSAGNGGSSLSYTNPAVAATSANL
# Excerpt: This finding is not surprising based on a requirement for the cysteine residues in the GO-203-2 binding domain (CQCRRKN) to be available for binding with cysteine residues on the corresponding binding domain of the MUC1-CD protein.
# [4] = system: MiaPaCa-2 pancreatic carcinoma; conditions: human
# Description: (§1) GO-203-2 and GO-203-2c were evaluated for ability to inhibit proliferation of murine and human carcinoma cell lines in vitro. Test compound (5 μM final concentration) was added to tumor cell cultures daily for 5 to 6 days, and cell viability was determined by trypan blue dye exclusion.
# A549 NSCLC = conditions: human
# Description: as §1
# ZR-75-1 breast carcinoma = conditions: human
# Description: as §1
# H1975 NSCLC = conditions: human
# Description: as §1
# H1650 NSCLC = conditions: human
# Description: as §1
# KW-814 T6 NSCLC = conditions: mouse
# Description: as §1
# MCF-7 breast carcinoma = conditions: human
# Description: as §1
# KW-807 LN NSCLC = conditions: mouse
# Description: as §1
# Solubility = type: physicochemical; conditions: for solubility: as peptide
# [5] = Redox conversion in the presence of glutathione; type: physicochemical; conditions: in the presence of low levels of glutathione
# Excerpt: The drug substance is isolated as the disulfide, with the disulfide bond cyclizing the D-cys10 and D-cys12 residues. The synthesis, cleavage, oxidation and purification steps use standard solid phase procedures as described in the literature. A solution phase procedure for converting the peptide to the cyclic disulfide was developed. […] The biological properties of GO-203-2c will in part be governed by glutathione, which provides a significant portion of in vivo redox buffering capacity as mentioned above. Total glutathione levels approximate 20-30 μM in blood plasma, 0.5 mM in whole blood, and 5-10 mM intracellularly. […] Intracellular glutathione concentrations are sufficient to convert GO-203-2c (disulfide) to the GO-203-2 (dithiol) species that binds to the biological target, MUC1-CD.
# [6] = system: MiaPaCa pancreatic carcinoma xenograft; assay: MiaPaCa human pancreatic carcinoma xenograft model, GO-203-2c IV; type: in vivo, mouse
# Description: Male BALB/c nu/nu mice (8 weeks old; Charles River Laboratories, Wilmington, Mass.) were injected with 2.5 million MiaPaCa cells in the right thigh. When tumors reached a predetermined size (approximately 100 mm^3; 34 days after tumor cell implantation), mice (8 per group) were administered normal saline (control) or GO-203-2c (10 mg/kg) IV daily for 21 consecutive days. At the end of the treatment period, and following a one week interim period, animals that received GO-203-2c initially were administered an additional series of GO-203-2c daily injections.
# [7] = system: ZR-75-1 human breast carcinoma xenograft; assay: ZR-75-1 xenograft model, 5 days on/2 days off IV dosing schedule; type: in vivo, mouse; conditions: for Mice completely cured / Tumor response: 7.5 mg/kg IV
# Description: In a second study using this ZR-75-1 cell xenograft model, a 5 days on/2 days off IV dosing schedule was used, and groups of 8 mice received either one, two or three cycles utilizing this schedule. […] Tumor growth was cytostatic for 4-5 days after stopping the drug treatment, but tumors subsequently started re-growing similarly to control. […] Tumors in the remaining 5 of 8 mice in this group started re-growing at 8+ days after cessation of treatment. These animals were administered an additional 2 cycles of treatment, starting on Day 29.
# Hygroscopicity = type: physicochemical; conditions: drug substance powder
# Excerpt: There is no evidence to support an isolable hydrate. GO-203-2c HCl is hygroscopic, and precautions must be taken to avoid moisture uptake while handling the drug substance powder.
# muscarinic M2 receptor = muscarinic M2 receptor (Homo sapiens, UniProt P08172); assay: biochemical
# Chain of muscarinic M2 receptor (P08172 whole entry): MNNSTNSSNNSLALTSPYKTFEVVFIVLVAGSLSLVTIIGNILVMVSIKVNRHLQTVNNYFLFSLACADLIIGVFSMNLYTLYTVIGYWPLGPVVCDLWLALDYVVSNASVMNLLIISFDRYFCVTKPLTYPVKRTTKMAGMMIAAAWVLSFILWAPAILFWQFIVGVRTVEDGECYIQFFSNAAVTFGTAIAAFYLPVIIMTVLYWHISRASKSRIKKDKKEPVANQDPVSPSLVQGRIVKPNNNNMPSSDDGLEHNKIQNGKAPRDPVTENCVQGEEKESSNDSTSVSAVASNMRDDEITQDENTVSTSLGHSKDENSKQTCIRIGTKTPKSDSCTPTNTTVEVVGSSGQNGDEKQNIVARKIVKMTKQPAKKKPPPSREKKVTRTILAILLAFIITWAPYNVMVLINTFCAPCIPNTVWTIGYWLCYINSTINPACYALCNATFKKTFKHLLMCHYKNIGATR
# [8] = 10 mg/kg IV daily for 21 consecutive days
structure (smiles),measurement,setting,value
"CC(=O)N[C@H](CCCNC(=N)N)C(=O)N[C@H](CCCNC(=N)N)C(=O)N[C@H](CCCNC(=N)N)C(=O)N[C@H](CCCNC(=N)N)C(=O)N[C@H](CCCNC(=N)N)C(=O)N[C@H](CCCNC(=N)N)C(=O)N[C@H](CCCNC(=N)N)C(=O)N[C@H](CCCNC(=N)N)C(=O)N[C@H](CCCNC(=N)N)C(=O)N[C@@H]1CSSC[C@H](C(=O)N[C@H](CCCNC(=N)N)C(=O)N[C@H](CCCNC(=N)N)C(=O)N[C@H](CCCCN)C(=O)N[C@H](CC(N)=O)C(N)=O)NC(=O)[C@@H](CCC(N)=O)NC1=O [GO-203-2c, Ac-(D)Arg-(D)Arg-(D)Arg-(D)Arg-(D)Arg-(D)Arg-(D)Arg-(D)Arg-(D)Arg-(D)Cys-(D)Gln-(D)Cys-(D)Arg-(D)Arg-(D)Lys-(D)Asn-NH2 disulfide] (Ac-[dR][dR][dR][dR][dR][dR][dR][dR][dR][dC][dQ][dC][dR][dR][dK][dN]-NH2; disulfide 10-12)",IC50,[1],3 to 8 µM
same,IC50,dopamine D1 receptor,10.5 µM
same,Tumor response,[2]; 5 days on/2 days off x 3 cycles,complete growth arrest and regression; also recorded: tumor growth was immediately arrested and tumors regressed
same,Tumor response,[2]; daily x 21 days,complete growth arrest and regression; also recorded: tumor growth was immediately arrested and tumors regressed
same,IC50,[3],3 to 8 µM
same,IC50,adrenergic α1A receptor,3 to 8 µM
same,Inhibition of MUC1-CD oligomerization,MUC1-CD,inhibition
same,% Inhibition of cell viability,[4],81.5%
same,% Inhibition of cell viability,A549 NSCLC,73.1%
same,% Inhibition of cell viability,ZR-75-1 breast carcinoma,43.6%
same,% Inhibition of cell viability,H1975 NSCLC,46.2%
same,% Inhibition of cell viability,H1650 NSCLC,89.0%
same,% Inhibition of cell viability,KW-814 T6 NSCLC,70.1%
same,% Inhibition of cell viability,MCF-7 breast carcinoma,87.7%
same,% Inhibition of cell viability,KW-807 LN NSCLC,40.3%
same,solubility,"Solubility; 10 mM acetate pH 3.0-4.0, 0.9% NaCl",> 50 mg/mL
same,solubility,Solubility; 10 mM acetate pH 4.0,7 to 37 mg/mL
same,solubility,Solubility; 1% (v/v) aqueous acetic acid,> 110 mg/mL
same,solubility,Solubility; 10% (v/v) aqueous acetonitrile,> 110 mg/mL
same,Time without gel formation,"Solubility; solutions in water, 1% aqueous acetic acid or 10% aqueous acetonitrile",at least 5 days
same,solubility,Solubility; water,> 240 mg/mL
same,Conversion of disulfide to reduced (dithiol) form,[5],readily re-forms the reduced (dithiol) GO-203-2 peptide
same,Mice tumor-free,[6]; [8],2 of 8 and Two out of 8
same,Tumor response,[6]; [8],significant arrest of tumor growth; also recorded: tumor growth delay
same,Tumor response after re-dosing,[6]; another cycle of daily IV 10 mg/kg from day 29,"somewhat stabilized, with a very slow growth"
same,Average tumor size on day 29,"[6]; six remaining mice after 7-day rest period, at start of re-dosing",~400 mm^3
same,Mice completely cured,[7]; 2 dosing cycles,Two of 8
same,Tumor response,[7]; 2 dosing cycles (5 days on/2 days off),Tumor regression
same,Mice completely cured,[7]; 3 dosing cycles,Three of 8
same,Tumor response,[7]; 3 dosing cycles (5 days on/2 days off),"tumor growth arrest during the treatment period, but the tumors resumed growth; also recorded: substantial regression of tumors"
same,Tumor response,[7]; one dosing cycle (5 days on/2 days off),partial tumor regression
same,Tumor response after re-dosing,[7]; additional 2 cycles from Day 29 in 5 mice with re-growing tumors,somewhat stabilized with very slow growth
same,Hygroscopicity,Hygroscopicity,hygroscopic
same,IC50,muscarinic M2 receptor,3 to 8 µM
